From ChEMBL document CHEMBL3879887, “Aminocyclohexyl ether compounds and uses thereof” (2007)

Tested on: Canis familiaris
Assay: Inhibition of atrial fibrillation in iv dosed Mongrel dog vagal-atrial fibrillation model administered via infusion pump over 5 mins by electrophysiological method
Type: functional, Canis lupus familiaris
Conditions: not given
For `O=C(NCC1CCCCN1)c1cc(OCC(F)(F)F)ccc1OCC(F)(F)F` (stereo not drawn) [FLECAINIDE], the ED was 1 to 10 µmol/kg.

Tested on: not listed separately
Assay: Neurotoxicity in iv dosed Sprague-Dawley rat assessed as minimum infusion rate of the compound require for partial and complete convulsion
Type: toxicity, organism-based
Conditions: in vivo
For `COc1ccc(CCO[C@H]2CCCCC2N2CC[C@H](OCc3ccccc3)C2)cc1OC.Cl` (stereo partly drawn), the Activity was 8 µmol/kg/min. Work on `COc1ccc(CCOC2CCCCC2N2CCCC2)cc1OC.Cl` (stereo not drawn) yielded an Activity of 8 to 21.3 µmol/kg/min.

Tested on: not listed separately
Assay: Neurotoxicity in iv dosed Sprague-Dawley rat assessed as total amount of drug infused at the point that partial or complete convulsions are first observed
Type: toxicity, organism-based
Conditions: in vivo
For `COc1ccc(CCOC2CCCCC2N2CCCC2)cc1OC.Cl` (stereo not drawn), the Activity was 44.4 to 118 µmol/kg.

Tested on: Rattus norvegicus
Assay: Antiarrhythmic activity in iv dosed Sprague-Dawley rat coronary artery occlusion model administered via infusion for 5 mins starting 15 post surgery followed by coronary artery occlusion measured for 15 mins by electrocardiogram
Type: functional
Conditions: not given
In the case of `COc1ccc(CCOC2CCCCC2N2CCCC2)cc1OC.Cl` (stereo not drawn), the ED50 is reported as 1.33 to 2.4 µmol/kg/min.

Tested on: not listed separately
Assay: Therapeutic index, ratio of neurotoxicity in iv dosed Sprague-Dawley rat assessed as total amount of drug infused at the point that partial or complete convulsions are first observed to 20 times ED50 for antiarrhythmic activity in iv dosed Sprague-Dawley rat coronary artery occlusion model
Type: organism-based
Conditions: Sprague-Dawley, in vivo, read-out: TI
In the case of `c1cc(CCO[C@H]2CCCCC2N2CCOCC2)c2ccsc2c1` (stereo partly drawn), the selectivity ratio is reported as 2.7. Work on `COc1ccc(CCO[C@H]2CCCCC2N2CC[C@H](OCc3ccccc3)C2)cc1OC.Cl` (stereo partly drawn) yielded a selectivity ratio of 3.8. `Brc1cccc(CCO[C@H]2CCCCC2N2CCOCC2)c1` (stereo partly drawn) showed a selectivity ratio of 3.3. Work on `COc1ccc(CCOC2CCCCC2N2CCCC2)cc1OC.Cl` (stereo not drawn) yielded a selectivity ratio of 0.9 to 4.4. `Clc1ccc(CCO[C@H]2CCCCC2N2CCOCC2)cc1Cl` (stereo partly drawn) showed a selectivity ratio of 3.9. `Brc1ccc(OCCO[C@H]2CCCCC2N2CCOCC2)cc1` (stereo partly drawn) gave a selectivity ratio of 1.4. For `COc1ccc(CCCCO[C@H]2CCCCC2N2CCOCC2)cc1OC` (stereo partly drawn), the selectivity ratio was 2.2. In the case of `Clc1cccc(Cl)c1COC1CCCC[C@H]1N1CCOCC1` (stereo partly drawn), the selectivity ratio is reported as 2.7. For `Clc1cccc(Cl)c1CCOC1CCCC[C@H]1N1CCSC1` (stereo partly drawn), the selectivity ratio was 2.5. Compound `O[C@@H]1CCN(C2CCCC[C@@H]2OCCc2ccccc2C(F)(F)F)C1` (stereo partly drawn) has a selectivity ratio of 7.3. With `FC(F)(F)c1ccccc1CCO[C@H]1CCCC[C@H]1N1CCOCC1` (racemic) the selectivity ratio was 3.6. `c1ccc2c(CCO[C@H]3CCCCC3N3CCOCC3)csc2c1` (stereo partly drawn) gave a selectivity ratio of 3.3. `COc1cc(CCCO[C@H]2CCCCC2N2CC[C@@H](O)C2)cc(Cl)c1OC` (stereo partly drawn) gave a selectivity ratio of 7.6. For `c1ccc2cc(OCCO[C@H]3CCCCC3N3CCOCC3)ccc2c1` (stereo partly drawn), the selectivity ratio was 1.5. `Brc1ccccc1CCO[C@H]1CCCCC1N1CCOCC1` (stereo partly drawn) gave a selectivity ratio of 6.3. Work on `OC1CCN(C2CCCC[C@@H]2OCCc2ccccc2Br)C1` (stereo partly drawn) yielded a selectivity ratio of 8.4. `c1ccc2c(CCO[C@H]3CCCCC3N3CCOCC3)cccc2c1` (stereo partly drawn) showed a selectivity ratio of 4.7. Compound `c1ccc2cc(CCO[C@H]3CCCCC3N3CCOCC3)ccc2c1` (stereo partly drawn) has a selectivity ratio of 5.3. For `COc1ccc(CCO[C@H]2CCCCC2N2CCC[C@@H]2CO)cc1OC` (stereo partly drawn), the selectivity ratio was 8.9. In the case of `COc1ccc(CCO[C@H]2CCCCC2N2CC[C@@H](OCc3ccccc3)C2)cc1OC` (stereo partly drawn), the selectivity ratio is reported as 2.6. In the case of `O=C1CCN(C2CCCC[C@@H]2OCC(c2ccccc2)c2ccccc2)C1` (stereo partly drawn), the selectivity ratio is reported as 3.1. In the case of `OC1CCN(C2CCCC[C@@H]2OCCn2ccc3ccccc32)C1` (stereo partly drawn), the selectivity ratio is reported as 9.4. `Brc1ccc(CCO[C@H]2CCCCC2N2CCOCC2)cc1` (stereo partly drawn) gave a selectivity ratio of 2.2. Compound `COc1ccc(CCOC2CCCC[C@H]2N2CCC(F)C2)cc1OC` (stereo partly drawn) has a selectivity ratio of 2.3. With `CC(=O)OC1CCN([C@@H]2CCCCC2OCCc2cccc3ccccc23)C1` (stereo partly drawn) the selectivity ratio was 2.3. Compound `COc1ccc(CCO[C@@H]2CCCC[C@H]2N2CC[C@@H](OC(C)=O)C2)cc1OC` has a selectivity ratio of 1.8. In the case of `COc1ccc(CCO[C@H]2CCCCC2N2CC[C@H](OC(C)=O)C2)cc1OC` (stereo partly drawn), the selectivity ratio is reported as 2. `OC1CCN(C2CCCC[C@@H]2OCCc2c(Cl)cccc2Cl)C1` (stereo partly drawn) gave a selectivity ratio of 5.4. In the case of `COc1ccc(CCOC2CCCC[C@H]2N2CCC(=O)C2)cc1OC` (stereo partly drawn), the selectivity ratio is reported as 2.6. `O[C@@H]1CCN(C2CCCC[C@@H]2OCCc2cc3ccccc3o2)C1` (stereo partly drawn) gave a selectivity ratio of 3.3. Work on `COc1ccc(CCOC2CCCC[C@H]2N2CCN(C(=O)Cc3ccc(OC)c(OC)c3)CC2)cc1OC` (stereo partly drawn) yielded a selectivity ratio of 11.1. Compound `COc1ccc(CCO[C@H]2CCCCC2N2CCC3(C2)OCCO3)cc1OC` (stereo partly drawn) has a selectivity ratio of 2.9. For `O=C1CCN(C2CCCC[C@@H]2OCCc2c(Cl)cccc2Cl)C1` (stereo partly drawn), the selectivity ratio was 8.6. With `O=C1CCN([C@@H]2CCCCC2OCc2c(Cl)cccc2Cl)C1` (stereo partly drawn) the selectivity ratio was 5.1.

Same assay, conditions: in vivo
`Cl.OC1CCN([C@@H]2CCCC[C@@H]2OCCc2cccc3ccccc23)C1` (stereo partly drawn) gave a TI of 8.8. `Cl.OC1CCN(C2CCCC[C@@H]2OCCc2cccc3ccccc23)C1` (stereo partly drawn) showed a TI of 4.3. `COc1ccc(CCO[C@H]2CCCCC2N2CCOCC2)cc1OC` (stereo partly drawn) showed a TI of 1.4. `COc1ccc(CCOC2CCCC[C@H]2N2CCOCC2)cc1OC.Cl` (stereo partly drawn) showed a TI of 3.8.
